Results on 14 compounds are retold here after patent US20120225062A1 (priority 2011, published 2012).

For one assay, the target named is Pim 3 (Homo sapiens, UniProt Q86V86). The assay is described as follows: Pim 3 AlphaScreen assay (high ATP).
For the next assay, the target named is Pim 1 (Homo sapiens, UniProt P11309). Description: Pim 1 AlphaScreen assay (high ATP).
The next assay has as its target Pim 2 (Homo sapiens, UniProt Q9P1W9). Description: Pim 2 AlphaScreen assay (high ATP).
Assay [1] has as its system KMS11 (human myeloma cell line). Description: Cell Proliferation Assay (CellTiter-Glo, 3 days). Type of assay: cell-based. The conditions noted are these: KMS-11, 72 h, KMS11-luc cells. In outline: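 KMS11 myeloma cells, 2000 per well in IMDM with 10% FBS, exposed to compound for 3 days at 37° C. Viability read by CellTiter-Glo luminescence; EC50 derived.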

Pim 1, sequence (P11309 whole entry): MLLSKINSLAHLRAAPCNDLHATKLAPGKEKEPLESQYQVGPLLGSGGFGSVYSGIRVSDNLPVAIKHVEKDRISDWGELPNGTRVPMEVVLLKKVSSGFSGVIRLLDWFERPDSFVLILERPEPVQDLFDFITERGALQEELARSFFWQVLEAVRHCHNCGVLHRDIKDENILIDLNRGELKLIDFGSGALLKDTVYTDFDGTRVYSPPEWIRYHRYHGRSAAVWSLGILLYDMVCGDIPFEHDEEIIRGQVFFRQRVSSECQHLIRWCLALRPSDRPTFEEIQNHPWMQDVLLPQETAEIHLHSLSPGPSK
Pim 2, sequence (Q9P1W9 whole entry): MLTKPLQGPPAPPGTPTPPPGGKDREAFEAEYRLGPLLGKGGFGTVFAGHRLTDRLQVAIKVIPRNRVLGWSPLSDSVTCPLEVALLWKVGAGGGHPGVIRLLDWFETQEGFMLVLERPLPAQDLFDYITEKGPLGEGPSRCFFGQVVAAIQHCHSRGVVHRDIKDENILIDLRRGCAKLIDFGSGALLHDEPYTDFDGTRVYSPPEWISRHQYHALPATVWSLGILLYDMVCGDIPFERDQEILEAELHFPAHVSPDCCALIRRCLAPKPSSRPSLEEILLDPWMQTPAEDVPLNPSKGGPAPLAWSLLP
Protocol for Pim 1: (§1) The activity of Pim 1, Pim 2, & Pim 3 is measured using a homogeneous bead based system quantifying the amount of phosphorylated peptide substrate resulting from kinase-catalyzed phosphoryl transfer to a peptide substrate. Compounds to be tested are dissolved in 100% DMSO and directly distributed to a white 384-well plate at 0.25 μl per well. […] This is followed by the addition of 5 μl/well of Pim 1, Pim 2 or Pim 3 kinase in assay buffer (concentrations described below). Final assay concentrations (described below) are in 2.5% DMSO. The reactions are performed for ˜2 hours, then stopped by the addition of 10 μl of 0.75 μg/ml anti-phospho Ser/Thr antibody (Cell Signaling), 10 μg/ml Protein A AlphaScreen beads (Perkin Elmer), and 10 μg/ml streptavidin coated AlphaScreen beads in stop/detection buffer (50 mM EDTA, 95 mM Tris, pH=7.5, 0.01% Tween-20). The stopped reactions are incubated overnight in the dark. The phosphorylated peptide is detected via an oxygen anion initiated chemiluminescence/fluorescence cascade using the Envision plate reader (Perkin Elmer).
Protocol for Pim 3: as §1

For `C[C@H]1C[C@@H](c2ccncc2NC(=O)c2cccc(-c3c(F)cc(N4CCOCC4)cc3F)n2)C[C@@H](N)[C@@H]1O` [Example 191, N-(4-((1R,3R,4R,5S)-3-amino-4-hydroxy-5-methylcyclohexyl)pyridin-3-yl)-6-(2,6-difluoro-4-morpholinophenyl)picolinamide], the values for the IC50 at Pim 3, on Pim 1 and at Pim 2 were 0.52 nM, 0.02 nM and 2.31 nM, respectively. For the same compound, the midpoint of the response in assay [1], the EC50, lay at 263 nM.
In the same order, the values of `C[C@@H]1C[C@H](N)C[C@H](c2ccncc2NC(=O)c2cccc(-c3c(F)cc(C4CCOCC4)cc3F)n2)C1` [Example 192, N-(4-((1R,3S,5S)-3-amino-5-methylcyclohexyl)pyridin-3-yl)-6-(2,6-difluoro-4-(tetrahydro-2H-pyran-4-yl)phenyl)picolinamide] are 1.06 nM, 0.02 nM, 3.49 nM and 114 nM.
In the same order, the values of `C=Cc1ccc(F)c(-c2nc(C(=O)Nc3cnccc3[C@H]3C[C@@H](N)[C@H](O)[C@@H](C)C3)ccc2F)c1F` [Example 193, N-(4-((1R,3R,4R,5S)-3-amino-4-hydroxy-5-methylcyclohexyl)pyridin-3-yl)-6-(2,6-difluoro-3-vinylphenyl)-5-fluoropicolinamide] are 10.2 nM, 0.47 nM, 31.8 nM and 1850 nM.
For `C=CCOc1ccc(F)c(-c2nc(C(=O)Nc3cnccc3[C@H]3C[C@@H](N)[C@H](O)[C@@H](C)C3)ccc2F)c1F` [Example 194, 6-(3-(allyloxy)-2.6-difluorophenyl)-N-(4-((1R,3R,4R,5S)-3-amino-4-hydroxy-5-methylcyclohexyl)pyridin-3-yl)-5-fluoropicolinamide], the IC50 (in general, the concentration needed to halve the response being measured) against Pim 3 amounted to 1.19 nM; on Pim 1 it was 0.05 nM; against Pim 2 it was 10.4 nM. Also, the EC50 (as a rule, the concentration at which the effect is half-maximal) in assay [1] worked out at 1340 nM.
For `C[C@H]1CN(c2ccncc2NC(=O)c2ccc(F)c(-c3c(F)cc(C4(F)CCOCC4)cc3F)n2)C[C@@H](N)[C@@H]1O` [Example 195, N-(4-((3R,4R,5S)-3-amino-4-hydroxy-5-methylpiperidin-1-yl)pyridin-3-yl)-6-(2,6-difluoro-4-(4-fluorotetrahydro-2H-pyran-4-yl)phenyl)-5-fluoropicolinamide] the same measures were 0.18 nM, 0.01 nM, 0.39 nM and 36 nM.
For `C[C@@H]1C[C@H](N)C[C@H](c2ccncc2NC(=O)c2ccc(F)c(-c3c(F)cc(OCC(F)(F)F)cc3F)n2)C1` [Example 196, N-(4-((1R,3S,5S)-3-amino-5-methylcyclohexyl)pyridin-3-yl)-6-(2,6-difluoro-4-(2,2,2-trifluoroethoxy)phenyl)-5-fluoropicolinamide] the same measures were 1.37 nM, 0.02 nM, 2.76 nM and 246 nM.
In the same order, the values of `C[C@H]1C[C@@H](c2ccncc2NC(=O)c2ccc(F)c(-c3c(F)cc(OCC(F)(F)F)cc3F)n2)C[C@@H](N)[C@@H]1O` [Example 197, N-(4-((1R,3R,4R,5S)-3-amino-4-hydroxy-5-methylcyclohexyl)pyridin-3-yl)-6-(2,6-difluoro-4-(2,2,2-trifluoroethoxy)phenyl)-5-fluoropicolinamide] are 1.43 nM, 0.05 nM, 2.56 nM and 619 nM.
Take `C[C@H]1CN(c2ccncc2NC(=O)c2ccc(F)c(-c3c(F)cc(OCC(F)(F)F)cc3F)n2)C[C@@H](N)[C@@H]1O` [Example 198, N-(4-((3R,4R,5S)-3-amino-4-hydroxy-5-methylpiperidin-1-yl)pyridin-3-yl)-6-(2,6-difluoro-4-(2,2,2-trifluoroethoxy)phenyl)-5-fluoropicolinamide]: the figures for the IC50 on Pim 3, at Pim 1 and on Pim 2 were 0.17 nM, 0.01 nM and 0.33 nM, respectively. This compound yielded an EC50 in assay [1] of 98 nM.
For `C[C@H]1CN(c2ccncc2NC(=O)c2ccc(F)c(-c3c(F)cc(OCC4CCOCC4)cc3F)n2)C[C@@H](N)[C@@H]1O` [Example 200, N-(4-((3R,4R,5S)-3-amino-4-hydroxy-5-methylpiperidin-1-yl)pyridin-3-yl)-6-(2,6-difluoro-4-((tetrahydro-2H-pyran-4-yl)methoxy)phenyl)-5-fluoropicolinamide] the same measures were 0.19 nM, 0.01 nM, 0.56 nM and 82 nM.
For `CCOC(C)(C)c1cc(F)c(-c2nc(C(=O)Nc3cnccc3N3C[C@@H](N)[C@H](O)[C@@H](C)C3)ccc2F)c(F)c1` [Example 201, N-(4-((3R,4R,5S)-3-amino-4-hydroxy-5-methylpiperidin-1-yl)pyridin-3-yl)-6-(4-(2-ethoxypropan-2-yl)-2,6-difluorophenyl)-5-fluoropicolinamide] the same measures were 0.55 nM, 0.01 nM, 0.98 nM and 239 nM.
`C[C@@H]1C[C@H](N)C[C@H](c2ccncc2NC(=O)c2ccc(F)c(-c3c(F)cc(C4CCS(=O)(=O)CC4)cc3F)n2)C1` [Example 202, N-(4-((1R,3S,5S)-3-amino-5-methylcyclohexyl)pyridin-3-yl)-6-(4-(1,1-dioxidotetrahydro-2H-thiopyran-4-yl)-2,6-difluorophenyl)-5-fluoropicolinamide]: the IC50 against Pim 3 was determined as 0.68 nM; against Pim 1, 0.01 nM; on Pim 2 it was 1.09 nM. Further, in assay [1], the EC50 was 251 nM.
For the compound `C[C@H]1C[C@@H](c2ccncc2NC(=O)c2ccc(F)c(-c3c(F)cc(C4CCS(=O)(=O)CC4)cc3F)n2)C[C@@H](N)[C@@H]1O` [Example 203, N-(4-((1R,3R,4R,5S)-3-amino-4-hydroxy-5-methylcyclohexyl)pyridin-3-yl)-6-(4-(1,1-dioxidotetrahydro-2H-thiopyran-4-yl)-2,6-difluorophenyl)-5-fluoropicolinamide], the IC50 on Pim 3 stood at 0.59 nM; against Pim 1, 0.02 nM; against Pim 2 it was 1.18 nM. In addition, in assay [1], a half-maximal effect (EC50) was put at 1490 nM.
In the same order, the values of `C[C@H]1CN(c2ccncc2NC(=O)c2ccc(F)c(-c3c(F)cc(C4CCS(=O)(=O)CC4)cc3F)n2)C[C@@H](N)[C@@H]1O` [Example 204, N-(4-((3R,4R,5S)-3-amino-4-hydroxy-5-methylpiperidin-1-yl)pyridin-3-yl)-6-(4-(1,1-dioxidotetrahydro-2H-thiopyran-4-yl)-2,6-difluorophenyl)-5-fluoropicolinamide] are 0.14 nM, 0.01 nM, 0.38 nM and 115 nM.
In the same order, the values of `C[C@H]1C[C@@H](c2ccncc2NC(=O)c2ccc(F)c(-c3c(F)cc(C4CCS(=O)(=O)CC4)cc3F)n2)C[C@@H](N)[C@H]1O` [Example 205, N-(4-((1R,3R,4S,5S)-3-amino-4-hydroxy-5-methylcyclohexyl)pyridin-3-yl)-6-(4-(1,1-dioxidotetrahydro-2H-thiopyran-4-yl)-2,6-difluorophenyl)-5-fluoropicolinamide] are 1.07 nM, 0.02 nM, 1.52 nM and 1380 nM.
